Results taken from paper PMC9073595, “Synthesis, human topoisomerase IIα inhibitory properties and molecular modeling studies of anti-proliferative curcumin mimics” (RSC Advances, 2019).

Key:
[1] = biological target: T1, human DNA topoisomerase IIα (Homo sapiens, UniProt P11388); assay: Human DNA topoisomerase IIα activity assay (TopoGEN kit, plasmid based); assay type: biochemical
T1 construct: purchased TopoGEN, Inc

[2] = test system: HCT116 (colon) carcinoma cell line; assay: MTT anti-proliferative assay, HCT116; assay type: cell-based; conditions: Homo sapiens, HCT-116, 72 h; read-out: IC50, μM ± SD, HCT116
[3] = test system: MCF7 (breast) carcinoma cell line; assay: MTT anti-proliferative assay, MCF7; assay type: cell-based; conditions: Homo sapiens, MCF7, 72 h; read-out: IC50, μM ± SD, MCF7
[4] = test system: A431 (squamous skin) carcinoma cell line; assay: MTT anti-proliferative assay, A431; assay type: cell-based; conditions: Homo sapiens, A-431, 72 h; read-out: IC50, μM ± SD, A431
[5] = test system: RPE1 (normal human immortalized retinal pigment epithelial cell line); assay: MTT assay on normal cells, RPE1; assay type: cell-based; conditions: RPE-1, RPE1 normal (non-cancer) cell line, read-out: IC50, μM ± SD, RPE1
Method: In-vitro antitumor screening
The targeted piperidinecarboxamides 24‒51 were screened for their antitumor properties against HCT116 (colon), MCF7 (breast) and A431 (squamous skin) carcinoma cell lines by the standard mitochondrial dependent reduction of yellow MTT [3-(4,5-dimethylthiazol-2-yl)-2,5-diphenyl-tetrazolium bromide] to purple formazan technique.11 Cells were suspended in McCoy’s 5A medium for HCT116, DMEM for MCF-7 and A431 in addition to 1% antibiotic–antimycotic mixture (10000 μg ml-1 potassium penicillin, 10000 μg ml-1 streptomycin sulfate and 25 μg ml-1 amphotericin B), 10% fetal bovine serum and 1% L-glutamine at 37 °C, under 5% CO2 and 95% humidity. Cells were seeded at concentration of 30000 cells per well in fresh complete growth medium in 96-well tissue culture microtiter plates for 24 h. Media was aspirated, fresh complete medium was added and cells were incubated with different concentrations of the tested compound to give a final concentration of [50, 25, 12.5 and 6.25 μM ([…] and 0.375 μM for the high potent analogues)]. 0.5% DMSO was used as negative control and 5-fluorouracil was used as positive control (standard reference). Triplicate wells were prepared for each individual dose. After 72 h of incubation, medium was aspirated, 40 μl MTT salt (2.5 mg ml-1) were added to each well and incubated for further 4 h at 37 °C.
To stop the reaction and dissolve the formed crystals, 150 μl of 10% sodium dodecyl sulfate (SDS) in deionized water were added to each well and incubated overnight at 37 °C. The absorbance was then measured at 570 nm and a reference wavelength of 595 nm.
Data were collected as mean values for experiments performed in triplicates for each individual dose which had been measured by MTT assay. Control experiments did […]
survival was calculated according to equ. (1).
Surviving fraction = … . (1)
The synthesized compounds 24‒51 were also tested against RPE1 (normal human immortalized retinal pigment epithelial cell line) cell to determine the toxicity/selectivity […]
towards normal cells relative to the carcinoma cell lines utilized. The IC50 (concentration […]
was determined using Graph-Pad PRISM version-5 software. Statistical calculations for determination of the mean and standard error values were determined by SPSS 16 […]
8:1 which is the ratio between the data points and the number of QSAR descriptor).
Human DNA topoisomerase IIα inhibitory properties

T1 sequence (P11388 whole entry): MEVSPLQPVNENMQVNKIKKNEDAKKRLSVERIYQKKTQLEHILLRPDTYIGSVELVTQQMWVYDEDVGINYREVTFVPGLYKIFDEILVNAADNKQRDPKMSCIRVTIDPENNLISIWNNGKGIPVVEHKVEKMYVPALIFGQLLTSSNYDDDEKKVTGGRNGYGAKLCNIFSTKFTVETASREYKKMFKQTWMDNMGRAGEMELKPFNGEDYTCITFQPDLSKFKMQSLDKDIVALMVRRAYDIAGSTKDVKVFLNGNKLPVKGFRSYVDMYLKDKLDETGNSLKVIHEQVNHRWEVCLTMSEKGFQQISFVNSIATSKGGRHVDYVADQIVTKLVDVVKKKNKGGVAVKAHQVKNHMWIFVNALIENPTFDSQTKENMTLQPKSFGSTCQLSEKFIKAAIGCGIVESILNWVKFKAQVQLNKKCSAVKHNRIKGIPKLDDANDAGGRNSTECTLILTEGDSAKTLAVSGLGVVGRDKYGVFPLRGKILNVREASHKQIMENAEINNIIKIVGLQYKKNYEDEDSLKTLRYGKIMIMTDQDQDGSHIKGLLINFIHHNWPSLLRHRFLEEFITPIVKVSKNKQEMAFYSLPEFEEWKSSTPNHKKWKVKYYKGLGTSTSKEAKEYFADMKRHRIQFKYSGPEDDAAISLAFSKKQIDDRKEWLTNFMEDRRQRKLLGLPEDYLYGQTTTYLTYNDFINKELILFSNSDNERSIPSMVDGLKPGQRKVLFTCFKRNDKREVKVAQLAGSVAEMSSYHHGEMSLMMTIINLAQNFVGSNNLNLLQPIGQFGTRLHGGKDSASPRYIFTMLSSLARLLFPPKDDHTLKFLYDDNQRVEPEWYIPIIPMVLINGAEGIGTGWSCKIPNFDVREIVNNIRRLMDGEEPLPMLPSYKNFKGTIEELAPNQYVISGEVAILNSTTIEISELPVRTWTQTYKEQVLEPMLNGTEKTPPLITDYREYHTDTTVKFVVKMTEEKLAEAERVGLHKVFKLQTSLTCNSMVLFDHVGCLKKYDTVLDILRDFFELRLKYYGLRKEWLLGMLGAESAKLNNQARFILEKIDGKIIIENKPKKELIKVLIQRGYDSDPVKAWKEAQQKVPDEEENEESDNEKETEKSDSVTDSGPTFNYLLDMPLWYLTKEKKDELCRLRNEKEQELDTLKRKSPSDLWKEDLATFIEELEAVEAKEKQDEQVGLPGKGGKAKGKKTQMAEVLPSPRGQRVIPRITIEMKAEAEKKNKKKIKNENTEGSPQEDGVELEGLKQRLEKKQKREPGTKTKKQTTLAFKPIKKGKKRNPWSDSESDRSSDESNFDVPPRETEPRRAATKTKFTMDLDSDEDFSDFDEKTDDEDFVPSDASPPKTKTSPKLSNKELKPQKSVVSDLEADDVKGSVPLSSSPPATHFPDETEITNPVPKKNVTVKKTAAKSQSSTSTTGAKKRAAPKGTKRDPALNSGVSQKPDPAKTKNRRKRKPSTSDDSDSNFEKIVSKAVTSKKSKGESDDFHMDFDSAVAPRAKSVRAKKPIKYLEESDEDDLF

SMILES | IC50 [1] [µM] | IC50 [2] [µM] | IC50 [3] [µM] | IC50 [4] [µM] | IC50 [5] [µM] | melting point [°C]
COc1ccc(/C=C\c2cc(OC)c(OC)c(OC)c2)cc1O [Combretastatin A-4, reference compound] | 22 ± 0.85 |  |  |  |  | 
O=C1/C(=C/c2ccccc2)CN(C(=O)Nc2ccccc2)C/C1=C\c1ccccc1 [Compound 24, 3,5-Di[(E)-benzylidene]-4-oxo-N-phenylpiperidine-1-carboxamide] |  | 1.08 ± 0.18 | 1.83 ± 0.14 | 2.49 ± 0.31 | 16.6 ± 1.57 | 179 to 181
O=C1/C(=C/c2ccccc2)CN(C(=O)Nc2ccc(Cl)cc2)C/C1=C\c1ccccc1 [Compound 25, 3,5-Di[(E)-benzylidene]-N-(4-chlorophenyl)-4-oxopiperidine-1-carboxamide] |  | 1.03 ± 0.29 | 2.09 ± 0.26 | 2.51 ± 0.24 | 22.1 ± 2.06 | 186 to 188
COc1ccc(NC(=O)N2C/C(=C\c3ccccc3)C(=O)/C(=C/c3ccccc3)C2)cc1 [Compound 26, 3,5-Di[(E)-benzylidene]-N-(4-methoxyphenyl)-4-oxopiperidine-1-carboxamide] |  | 1.43 ± 0.2 | 2.48 ± 0.31 | 2.83 ± 0.36 | 17.7 ± 1.98 | 184 to 186
CCNC(=O)N1C/C(=C\c2ccccc2)C(=O)/C(=C/c2ccccc2)C1 [Compound 27, 3,5-Di[(E)-benzylidene]-N-ethyl-4-oxopiperidine-1-carboxamide] | 33.6 ± 1.3 | 1.61 ± 0.14 | 2.95 ± 0.24 | 2.56 ± 0.29 | > 50 | 172 to 174
O=C1/C(=C/c2ccccc2)CN(C(=O)NCc2ccccc2)C/C1=C\c1ccccc1 [Compound 28, N-Benzyl-3,5-di[(E)-benzylidene]-4-oxopiperidine-1-carboxamide] |  | 1.31 ± 0.22 | 2.58 ± 0.3 | 2.58 ± 0.27 | 12 ± 1.76 | 163 to 165
O=C1/C(=C/c2ccc(Cl)cc2)CN(C(=O)Nc2ccccc2)C/C1=C\c1ccc(Cl)cc1 [Compound 29, 3,5-Bis[(E)-4-chlorobenzylidene]-4-oxo-N-phenylpiperidine-1-carboxamide] | 29 ± 1.39 | 0.7 ± 0.06 | 1.33 ± 0.24 | 1.29 ± 0.15 | 9.67 ± 2.03 | 205 to 207
O=C1/C(=C/c2ccc(Cl)cc2)CN(C(=O)Nc2ccc(Cl)cc2)C/C1=C\c1ccc(Cl)cc1 [Compound 30, 3,5-Bis[(E)-4-chlorobenzylidene]-N-(4-chlorophenyl)-4-oxopiperidine-1-carboxamide] | 41.8 ± 2.42 | 0.58 ± 0.07 | 1.13 ± 0.29 | 0.64 ± 0.08 | 4.89 ± 1.97 | 185 to 187
COc1ccc(NC(=O)N2C/C(=C\c3ccc(Cl)cc3)C(=O)/C(=C/c3ccc(Cl)cc3)C2)cc1 [Compound 31, 3,5-Bis[(E)-4-chlorobenzylidene]-N-(4-methoxyphenyl)-4-oxopiperidine-1-carboxamide] |  | 1.03 ± 0.13 | 1.44 ± 0.19 | 1.24 ± 0.14 | 7.5 ± 1.75 | 210 to 212
CCNC(=O)N1C/C(=C\c2ccc(Cl)cc2)C(=O)/C(=C/c2ccc(Cl)cc2)C1 [Compound 32, 3,5-Bis[(E)-4-chlorobenzylidene]-N-ethyl-4-oxopiperidine-1-carboxamide] |  | 1.04 ± 0.11 | 2.35 ± 0.23 | 1.31 ± 0.09 | 12.1 ± 1.76 | 211 to 213
O=C1/C(=C/c2ccc(Cl)cc2)CN(C(=O)NCc2ccccc2)C/C1=C\c1ccc(Cl)cc1 [Compound 33, N-Benzyl-3,5-bis[(E)-4-chlorobenzylidene]-4-oxopiperidine-1-carboxamide] |  | 1.13 ± 0.19 | 2.14 ± 0.26 | 1.45 ± 0.12 | 11.4 ± 1.68 | 199 to 201
O=C1/C(=C/c2ccc(F)cc2)CN(C(=O)Nc2ccccc2)C/C1=C\c1ccc(F)cc1 [Compound 34, 3,5-Bis[(E)-4-fluorobenzylidene]-4-oxo-N-phenylpiperidine-1-carboxamide] | 30.7 ± 1.32 | 0.56 ± 0.04 | 2.34 ± 0.29 | 1.27 ± 0.09 | 17.5 ± 2.16 | 191 to 193
O=C1/C(=C/c2ccc(F)cc2)CN(C(=O)Nc2ccc(Cl)cc2)C/C1=C\c1ccc(F)cc1 [Compound 35, N-(4-Chlorophenyl)-3,5-bis[(E)-4-fluorobenzylidene]-4-oxopiperidine-1-carboxamide] | 26.4 ± 1.61 | 0.56 ± 0.06 | 1.36 ± 0.17 | 1.2 ± 0.14 | 8.26 ± 2.33 | 192 to 194
COc1ccc(NC(=O)N2C/C(=C\c3ccc(F)cc3)C(=O)/C(=C/c3ccc(F)cc3)C2)cc1 [Compound 36, 3,5-Bis[(E)-4-fluorobenzylidene]-N-(4-methoxyphenyl)-4-oxopiperidine-1-carboxamide] | 23 ± 1.37 | 0.62 ± 0.05 | 1.71 ± 0.12 | 1.31 ± 0.08 | 9.46 ± 1.86 | 189 to 191
CCNC(=O)N1C/C(=C\c2ccc(F)cc2)C(=O)/C(=C/c2ccc(F)cc2)C1 [Compound 37, N-Ethyl-3,5-bis[(E)-4-fluorobenzylidene]-4-oxopiperidine-1-carboxamide] | 27.2 ± 1.72 | 0.57 ± 0.07 | 2.32 ± 0.3 | 1.18 ± 0.11 | 9.78 ± 1.53 | 180 to 182
O=C1/C(=C/c2ccc(F)cc2)CN(C(=O)NCc2ccccc2)C/C1=C\c1ccc(F)cc1 [Compound 38, N-Benzyl-3,5-bis[(E)-4-fluorobenzylidene]-4-oxopiperidine-1-carboxamide] | 35 ± 2.08 | 0.56 ± 0.03 | 2.16 ± 0.15 | 1.33 ± 0.17 | 10.9 ± 1.42 | 178 to 180
O=C1/C(=C/c2cccs2)CN(C(=O)Nc2ccccc2)C/C1=C\c1cccs1 [Compound 48, (3E,5E)-4-Oxo-N-phenyl-3,5-bis(thiophen-2-ylmethylene)piperidine-1-carboxamide] |  | > 50 | 33.7 ± 1.38 | > 50 | > 50 | 
COc1ccc(NC(=O)N2C/C(=C\c3cccs3)C(=O)/C(=C/c3cccs3)C2)cc1 [Compound 49, (3E,5E)-N-(4-Methoxyphenyl)-4-oxo-3,5-bis(thiophen-2-ylmethylene)piperidine-1-carboxamide] |  | 40.8 ± 2.61 | 24.7 ± 1.99 | > 50 | > 50 | 194 to 196
CCNC(=O)N1C/C(=C\c2cccs2)C(=O)/C(=C/c2cccs2)C1 [Compound 50, (3E,5E)-N-Ethyl-4-oxo-3,5-bis(thiophen-2-ylmethylene)piperidine-1-carboxamide] |  | 20.1 ± 2.44 | 21.7 ± 2.78 | 40.6 ± 2.88 | 47.4 ± 2.66 | 197 to 199
O=C1/C(=C/c2cccs2)CN(C(=O)NCc2ccccc2)C/C1=C\c1cccs1 [Compound 51, (3E,5E)-N-Benzyl-4-oxo-3,5-bis(thiophen-2-ylmethylene)piperidine-1-carboxamide] |  | > 50 | > 50 | > 50 | > 50 | 
COc1cc(/C=C/C(=O)CC(=O)/C=C/c2ccc(O)c(OC)c2)ccc1O [Curcumin] |  | 38.2 ± 2.36 | 16 ± 2.04 |  |  | 
